We go through 21 molecules from ChEMBL document CHEMBL4616632, “Discovery of Cyclic Boronic Acid QPX7728, an Ultrabroad-Spectrum Inhibitor of Serine and Metallo-β-lactamases” (J Med Chem, 2020).

The test system of assay [1] is Klebsiella pneumoniae. Put plainly: Inhibition of Klebsiella pneumoniae KP1009 CTX-M-15 assessed as minimum concentration of compound required to reduce the MIC of aztreonam to 4 ug/ml.
Assay [2] deals with Escherichia coli. Nature of the assay: Inhibition of Escherichia coli KP308 SHV-5 assessed as minimum concentration of compound required to reduce the MIC of aztreonam to 4 ug/ml.
Assay [3] concerns Escherichia coli. Put plainly: Inhibition of Escherichia coli EC302 TEM-10 assessed as minimum concentration of compound needed to reduce the MIC of aztreonam to 4 ug/ml.
In assay [4] the target is Beta-lactamase (Klebsiella pneumoniae) (UniProt Q93LQ9). Nature of the assay: Inhibition of Klebsiella pneumoniae KP1004 KPC-2 assessed as minimum concentration of compound needed to reduce the MIC of aztreonam to 4 ug/ml.
The next assay deals with Enterobacter cloacae. Nature of the assay: Inhibition of Enterobacter cloacae ECL1002 AmpC assessed as minimum concentration of compound needed to reduce the MIC of aztreonam to 4 ug/ml.
Assay [5] has as its system Klebsiella pneumoniae. Put plainly: Inhibition of Klebsiella pneumoniae KP1081 NDM-1 assessed as minimum concentration of compound required to reduce the MIC of biapenem to 1 ug/ml.
Assay [6] relates to Klebsiella pneumoniae. Nature of the assay: Inhibition of Klebsiella pneumoniae KP1054 VIM-1 assessed as minimum concentration of compound required to reduce the MIC of biapenem to 1 ug/ml.
The next assay deals with Pseudomonas aeruginosa. Put plainly: Inhibition of Pseudomonas aeruginosa PAM 2035 AmpC assessed as minimum concentration of compound needed to reduce the MIC of aztreonam to 4 ug/ml.
Assay [7] deals with Klebsiella pneumoniae. Put plainly: Inhibition of Klebsiella pneumoniae KP1160 IMP-26 assessed as minimum concentration of compound needed to reduce the MIC of meropenem to 1 ug/ml.

Sequence of Beta-lactamase (Klebsiella pneumoniae) (Q93LQ9 as listed by the source): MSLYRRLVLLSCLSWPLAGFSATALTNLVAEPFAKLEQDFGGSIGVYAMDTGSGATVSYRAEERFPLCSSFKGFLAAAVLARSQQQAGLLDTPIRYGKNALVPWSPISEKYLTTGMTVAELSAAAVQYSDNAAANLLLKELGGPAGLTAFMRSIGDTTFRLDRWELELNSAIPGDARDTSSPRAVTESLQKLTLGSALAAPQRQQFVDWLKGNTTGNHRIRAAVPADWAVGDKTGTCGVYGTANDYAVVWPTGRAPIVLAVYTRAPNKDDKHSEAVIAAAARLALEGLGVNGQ

`NC(=O)CS[C@H]1Cc2cccc(C(=O)O)c2OB1O`: the MEC in the assay on Klebsiella pneumoniae [1] was > 10 µg/mL; in the assay on Escherichia coli [2], > 10 µg/mL; in the assay with Escherichia coli [3] it was > 10 µg/mL; in assay [4], 5 µg/mL; in the assay on Enterobacter cloacae, > 10 µg/mL; with Klebsiella pneumoniae [5] it was 0.6 µg/mL. Further, the MEC with Klebsiella pneumoniae [6] is 2.5 µg/mL.
With `O=C(O)c1c(OCC2CC2)ccc2c1OB(O)[C@@H](Sc1nncs1)C2`, the MEC is > 20 µg/mL with Klebsiella pneumoniae [1]; 10 µg/mL in the assay with Escherichia coli [2]; 20 µg/mL in the assay on Escherichia coli [3]; > 20 µg/mL in [4]; > 20 µg/mL in the assay on Enterobacter cloacae; 1.25 µg/mL in the assay on Klebsiella pneumoniae [5]. Also, the MEC in the assay with Klebsiella pneumoniae [6] turned out to be 0.16 µg/mL; in the assay on Pseudomonas aeruginosa, 20 µg/mL; with Klebsiella pneumoniae [7], 0.3 µg/mL.
`NC(=O)CCS[C@H]1Cc2cccc(C(=O)O)c2OB1O`: the MEC in the assay on Klebsiella pneumoniae [1] is > 20 µg/mL; in the assay with Escherichia coli [2], > 20 µg/mL; in the assay with Escherichia coli [3] it was > 20 µg/mL; in assay [4] it was 5 µg/mL; with Enterobacter cloacae it was > 20 µg/mL; with Klebsiella pneumoniae [5], 1.25 µg/mL. Besides, the MEC in the assay on Klebsiella pneumoniae [6] stood at 1.25 µg/mL.
On to `O=C(O)c1cccc2c1OB(O)[C@@H](Sc1nnc[nH]1)C2`, for which the MEC in the assay with Klebsiella pneumoniae [1] was 5 µg/mL; with Escherichia coli [2], > 40 µg/mL; with Escherichia coli [3], > 40 µg/mL; in [4], > 40 µg/mL; in the assay with Enterobacter cloacae it was > 40 µg/mL; in the assay with Klebsiella pneumoniae [5], < 0.3 µg/mL. Further, in the assay with Klebsiella pneumoniae [6], the MEC is 2.5 µg/mL.
Regarding `O=C(O)c1c(OC2COC2)ccc2c1OB(O)[C@@H](Sc1nncs1)C2`, the MEC (in the assay with Klebsiella pneumoniae [1]; in the assay with Escherichia coli [2]; with Escherichia coli [3]; in [4]; in the assay with Enterobacter cloacae; with Klebsiella pneumoniae [5]) was > 20 µg/mL each time. Further, the MEC with Klebsiella pneumoniae [6] is 20 µg/mL; in the assay on Pseudomonas aeruginosa, > 20 µg/mL; with Klebsiella pneumoniae [7], > 20 µg/mL.
Consider `Nc1nnc(S[C@H]2Cc3cccc(C(=O)O)c3OB2O)[nH]1`, for which the MEC was > 20 µg/mL with Klebsiella pneumoniae [1]; > 20 µg/mL in the assay on Escherichia coli [2]; > 20 µg/mL in the assay with Escherichia coli [3]; > 20 µg/mL in assay [4]; > 20 µg/mL with Enterobacter cloacae; < 0.3 µg/mL in the assay with Klebsiella pneumoniae [5]. The MEC with Klebsiella pneumoniae [6] was < 0.3 µg/mL.
With `CO[C@H]1Cc2cccc(C(=O)O)c2OB1O`, the MEC came to 10 µg/mL with Klebsiella pneumoniae [1]; 2.5 µg/mL in the assay on Escherichia coli [2]; 20 µg/mL in the assay with Escherichia coli [3]; 0.3 µg/mL in assay [4]; 2.5 µg/mL with Enterobacter cloacae; 0.6 µg/mL in the assay with Klebsiella pneumoniae [5]. In the assay with Klebsiella pneumoniae [6], the MEC turned out to be 0.16 µg/mL.
Take `CSCCOc1ccc2c(c1C(=O)O)OB(O)[C@@H](Sc1nncs1)C2`: the MEC is > 20 µg/mL with Klebsiella pneumoniae [1]; 10 µg/mL in the assay with Escherichia coli [2]; > 20 µg/mL in the assay on Escherichia coli [3]; 20 µg/mL in [4]; > 20 µg/mL in the assay with Enterobacter cloacae; 2.5 µg/mL with Klebsiella pneumoniae [5]. Besides, the results for the MEC with Klebsiella pneumoniae [6], in the assay on Pseudomonas aeruginosa and with Klebsiella pneumoniae [7] were 1.25 µg/mL, 10 µg/mL and 0.6 µg/mL, respectively.
Consider `O=C(O)c1cccc2c1OB(O)[C@@H](Sc1ncccn1)C2`, for which the MEC in the assay with Klebsiella pneumoniae [1] was > 20 µg/mL; in the assay on Escherichia coli [2], > 20 µg/mL; in the assay with Escherichia coli [3] it was > 20 µg/mL; in assay [4] it was > 20 µg/mL; in the assay with Enterobacter cloacae, > 20 µg/mL; with Klebsiella pneumoniae [5] it was 10 µg/mL. The MEC with Klebsiella pneumoniae [6] was 20 µg/mL.
As for `Nc1nnc(S[C@H]2Cc3cccc(C(=O)O)c3OB2O)s1`, the MEC with Klebsiella pneumoniae [1] is > 10 µg/mL; with Escherichia coli [2] it was 5 µg/mL; in the assay on Escherichia coli [3], > 10 µg/mL; in [4], 10 µg/mL; with Enterobacter cloacae, > 10 µg/mL; with Klebsiella pneumoniae [5], 0.3 µg/mL. Also, in the assay on Klebsiella pneumoniae [6], the MEC was 0.16 µg/mL.
As for `N#CCOc1ccc2c(c1C(=O)O)OB(O)[C@@H](Sc1nncs1)C2`, the MEC in the assay on Klebsiella pneumoniae [1] is > 20 µg/mL; in the assay on Escherichia coli [2], 10 µg/mL; in the assay with Escherichia coli [3], 20 µg/mL; in assay [4] it was 20 µg/mL; in the assay with Enterobacter cloacae, > 20 µg/mL; in the assay with Klebsiella pneumoniae [5], 2.5 µg/mL. Further, the MEC in the assay with Klebsiella pneumoniae [6] is 2.5 µg/mL; in the assay on Pseudomonas aeruginosa, > 20 µg/mL; in the assay on Klebsiella pneumoniae [7], > 20 µg/mL.
For `O=C(O)c1cccc2c1OB(O)[C@@H](Sc1ncc[nH]1)C2`, the MEC with Klebsiella pneumoniae [1] is > 10 µg/mL; in the assay with Escherichia coli [2] it was > 10 µg/mL; in the assay on Escherichia coli [3], > 10 µg/mL; in [4] it was > 10 µg/mL; in the assay on Enterobacter cloacae, > 10 µg/mL; in the assay on Klebsiella pneumoniae [5], > 20 µg/mL. For the same molecule, the MEC in the assay with Klebsiella pneumoniae [6] is > 20 µg/mL.
As for `CS[C@H]1Cc2cccc(C(=O)O)c2OB1O`, the MEC is > 20 µg/mL in the assay with Klebsiella pneumoniae [1]; > 20 µg/mL in the assay on Escherichia coli [2]; > 20 µg/mL in the assay with Escherichia coli [3]; 2.5 µg/mL in assay [4]; > 20 µg/mL in the assay on Enterobacter cloacae; 0.6 µg/mL in the assay with Klebsiella pneumoniae [5]. Also, the MEC in the assay with Klebsiella pneumoniae [6] was < 0.3 µg/mL.
Take `N=C(N)S[C@H]1Cc2cccc(C(=O)O)c2OB1O`: the MEC (with Klebsiella pneumoniae [1]; with Escherichia coli [2]; in the assay with Escherichia coli [3]; in [4]; in the assay on Enterobacter cloacae; in the assay on Klebsiella pneumoniae [5]) was > 20 µg/mL each time. The MEC in the assay with Klebsiella pneumoniae [6] was > 20 µg/mL.
With `O=C(O)c1cccc2c1OB(O)[C@@H](Sc1ccccn1)C2`, the MEC is > 10 µg/mL with Klebsiella pneumoniae [1]; > 10 µg/mL in the assay with Escherichia coli [2]; > 10 µg/mL with Escherichia coli [3]; > 10 µg/mL in assay [4]; > 10 µg/mL with Enterobacter cloacae; > 20 µg/mL with Klebsiella pneumoniae [5]. In the assay on Klebsiella pneumoniae [6], the MEC was > 20 µg/mL.
`Nn1cnnc1S[C@H]1Cc2cccc(C(=O)O)c2OB1O`: the MEC in the assay with Klebsiella pneumoniae [1] was 10 µg/mL; with Escherichia coli [2], 10 µg/mL; in the assay with Escherichia coli [3], > 20 µg/mL; in assay [4] it was 5 µg/mL; with Enterobacter cloacae, 5 µg/mL; in the assay with Klebsiella pneumoniae [5], 0.16 µg/mL. In the assay on Klebsiella pneumoniae [6], the MEC came out at 0.3 µg/mL.
As to `O=C(O)c1cccc2c1OB(O)[C@@H](Sc1c[nH]nn1)C2`, the MEC with Klebsiella pneumoniae [1] was > 20 µg/mL; in the assay on Escherichia coli [2] it was 5 µg/mL; with Escherichia coli [3], > 20 µg/mL; in assay [4], > 20 µg/mL; in the assay on Enterobacter cloacae, > 20 µg/mL; in the assay with Klebsiella pneumoniae [5] it was 0.3 µg/mL. Also, the MEC in the assay with Klebsiella pneumoniae [6] came to 0.6 µg/mL.
For the molecule `Cn1cnnc1S[C@H]1Cc2cccc(C(=O)O)c2OB1O`, the MEC is > 20 µg/mL in the assay on Klebsiella pneumoniae [1]; > 20 µg/mL with Escherichia coli [2]; > 20 µg/mL in the assay with Escherichia coli [3]; > 20 µg/mL in [4]; > 20 µg/mL in the assay on Enterobacter cloacae; < 0.3 µg/mL with Klebsiella pneumoniae [5]. For the same molecule, the MEC in the assay on Klebsiella pneumoniae [6] is < 0.3 µg/mL.
`O=C(O)c1cccc2c1OB(O)[C@@H](OC1CNC1)C2`: the MEC with Klebsiella pneumoniae [1] was > 20 µg/mL; in the assay on Escherichia coli [2], > 20 µg/mL; with Escherichia coli [3], > 20 µg/mL; in [4], > 20 µg/mL; with Enterobacter cloacae, 2.5 µg/mL; in the assay with Klebsiella pneumoniae [5], 0.6 µg/mL. In the assay with Klebsiella pneumoniae [6], the MEC is 0.6 µg/mL.
Turning to `O=C(O)c1cccc2c1OB(O)[C@@H](Sc1nccs1)C2`, the MEC in the assay on Klebsiella pneumoniae [1] was > 20 µg/mL; in the assay with Escherichia coli [2], 10 µg/mL; with Escherichia coli [3] it was > 20 µg/mL; in [4], > 20 µg/mL; in the assay on Enterobacter cloacae it was > 20 µg/mL; in the assay on Klebsiella pneumoniae [5], 0.3 µg/mL. In addition, the MEC in the assay on Klebsiella pneumoniae [6] was determined as 2.5 µg/mL.
Consider `O=C(O)c1cccc2c1OB(O)[C@@H](Sc1cccnc1)C2`, for which the MEC was > 20 µg/mL in the assay with Klebsiella pneumoniae [1]; > 20 µg/mL in the assay on Escherichia coli [2]; > 20 µg/mL in the assay on Escherichia coli [3]; > 20 µg/mL in assay [4]; > 20 µg/mL with Enterobacter cloacae; 2.5 µg/mL in the assay with Klebsiella pneumoniae [5]. In addition, in the assay with Klebsiella pneumoniae [6], the MEC was 1.25 µg/mL.
